According to US20090124672A1 (priority 2007, published 2009):
Several values for one entry are separate records, joined by “and”; a condition that tells them apart may be missing. Equal values may be shown once.

Experiments:
[1] = system: congenitally anxious Fawn-Hooded (FH) rats; experiment: Social interaction test, Fawn Hooded (FH) rat model of anxiety; format: in vivo; conditions: 15 mg/kg i.p., 30 min after injection
From the text: (§1) Experienced observers blinded to the experimental conditions carried out the social interaction test in a square open field (60 cm by 60 cm, with 16 15×15 cm squares marked out on the floor). Pairs of rats receiving the same treatment were placed in the arena and the onset of social interactions recorded. This procedure has been validated by previous studies (Overstreet et al. (2002); Overstreet et al. (2003)). Rats were unfamiliar with the open field and lighting conditions were low in order to generate an intermediate level of anxiety-related behavior. Rat pairs matched according to weight and treatment were placed simultaneously in the open field. During the 5-min session, line crosses (by two forepaws) and time spent in social interaction (grooming, sniffing, following) were scored individually for each rat (Kampov-Polevoy et al., 2000; Overstreet et al., 2002, 2003).

[2] = system: alcohol-withdrawn Sprague-Dawley (SD) rats; experiment: Social interaction test, repeated alcohol withdrawal-induced anxiety; format: in vivo, rat
From the text: as §1
Ethanol Exposure Studies: Individually housed Sprague-Dawley (SD) rats were given a complete nutritious liquid diet (Knapp et al., 2004; Overstreet et al., 2002) after 5 days to adapt to local conditions. Three days later, most of rats received a 4.5% ethanol liquid diet and others remained on the control liquid diet without ethanol. Rats consumed ethanol for 15 days in three cycles of 5 days each separated by a 2-day withdrawal period between cycles. This design enabled us to test two treatment regimens with Compound A. Acute effects of Compound A (3.75 and 15 mg/kg) were determined 4.5 hr after the 3rd ethanol cycle to allow alcohol washout. The social interaction test was carried out 30 min later.

[3] = system: SD rats subjected to restraint stress; experiment: Social interaction test, restraint-induced stress; format: in vivo, rat; conditions: 15 mg/kg pretreatment
From the text: as §1
Restraint-Induced Stress Study: SD rats were injected with either CMC vehicle or 15 mg/kg Compound A in vehicle and subjected to restraint stress in decapicones for one hour. After a 30-min recovery period, the rats were exposed to the open field arena for […] and social interaction and line crosses recorded.

[4] = system: Sprague-Dawley rats treated with DMCM; experiment: Social interaction test, DMCM-induced anxiety; format: in vivo, rat; conditions: 3.75, 7.5 or 15 mg/kg i.p. 15 min before 0.5 mg/kg DMCM
From the text: as §1
(§2) Fifteen min later the rats received a second injection of 0.5 mg/kg DMCM (methyl 6,7-demethoxy-4-ethyl-β-carboline-3-carboxylate) or vehicle (acidified saline). The rats were placed in the open field arena 15 min after the second injection for recording social interaction and locomotor activity for 5-min. Approximately one week later the rats were treated with Compound A (3.75, 7.5 or 15 mg/kg). The 5-HT2C agonist mCPP (m-chlorophenylpiperazine; 0.5 mg/kg) or vehicle (saline) was given 15 min later. After another 15 min period, the social interaction and locomotor activity for five min were recorded.

[5] = system: Sprague-Dawley rats treated with mCPP; experiment: Social interaction test, mCPP-induced anxiety; format: in vivo, rat; conditions: 3.75, 7.5 or 15 mg/kg 15 min before 0.5 mg/kg mCPP
From the text: as §1, §2

Rats [6] = experiment: Example 32 social interaction, line crosses and center entries; format: in vivo, rat; parameters: Social Interaction, Mean / Social Interaction, individual rat: unit not given here; conditions: 15 mg/kg
From the text: (§3) One noninjected rat was included in the control group for water intake.

Rats [7] = experiment: Example 32 alcohol, food and water intake; format: in vivo, rat; conditions: 15 mg/kg
From the text: as §3

[8] = target: T1, hALDH2 (recombinant human mitochondria ALDH) (Homo sapiens, UniProt P05091); experiment: ALDH2 inhibition assay (NADH formation, formaldehyde substrate); format: biochemical
T1 sequence (P05091 18-517): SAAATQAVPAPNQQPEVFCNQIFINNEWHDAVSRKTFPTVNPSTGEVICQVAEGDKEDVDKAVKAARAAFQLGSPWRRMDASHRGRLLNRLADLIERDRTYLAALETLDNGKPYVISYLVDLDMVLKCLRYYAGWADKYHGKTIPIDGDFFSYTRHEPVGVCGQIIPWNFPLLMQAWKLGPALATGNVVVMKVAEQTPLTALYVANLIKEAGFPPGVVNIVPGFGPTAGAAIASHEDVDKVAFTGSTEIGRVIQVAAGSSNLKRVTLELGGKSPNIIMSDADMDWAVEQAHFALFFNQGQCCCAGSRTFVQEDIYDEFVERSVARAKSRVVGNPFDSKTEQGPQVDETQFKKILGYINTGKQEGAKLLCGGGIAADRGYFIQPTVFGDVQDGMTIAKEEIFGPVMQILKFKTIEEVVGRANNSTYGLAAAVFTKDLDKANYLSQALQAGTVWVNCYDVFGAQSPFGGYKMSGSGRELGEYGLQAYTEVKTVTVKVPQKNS
In short: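 1 nM enzyme in 50 mM sodium phosphate pH 7.4 with 1.2 mM NAD+ and compound at 0.03–1000 nM; reaction started with 0.15 mM formaldehyde at 25 °C. NADH formation followed by fluorescence (ex 340/em 460 nm). IC50 from sigmoidal fits with floating Hill slope; apparent Ki from Morrison equation if tight binding.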

hMAO-A = target: T2, hMAO-A (Homo sapiens, UniProt P21397); experiment: MAO-A inhibition assay (Amplex Red, horseradish peroxidase-coupled); format: biochemical
T2 construct: purchased Sigma M7316
T2 sequence (P21397 1-527): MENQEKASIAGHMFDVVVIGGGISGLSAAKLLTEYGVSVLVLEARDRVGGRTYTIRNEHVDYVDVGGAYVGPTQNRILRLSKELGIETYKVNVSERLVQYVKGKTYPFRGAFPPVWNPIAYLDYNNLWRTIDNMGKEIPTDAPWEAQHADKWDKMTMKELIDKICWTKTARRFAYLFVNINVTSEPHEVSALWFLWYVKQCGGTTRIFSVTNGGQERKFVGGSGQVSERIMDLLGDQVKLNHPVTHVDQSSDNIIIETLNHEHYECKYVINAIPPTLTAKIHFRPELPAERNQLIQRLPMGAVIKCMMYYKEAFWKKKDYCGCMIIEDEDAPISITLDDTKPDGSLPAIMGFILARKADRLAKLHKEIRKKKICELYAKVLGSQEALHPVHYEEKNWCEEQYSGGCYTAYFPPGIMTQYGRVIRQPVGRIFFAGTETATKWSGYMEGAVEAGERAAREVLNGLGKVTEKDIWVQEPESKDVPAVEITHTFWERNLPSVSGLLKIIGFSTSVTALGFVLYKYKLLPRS
Experimental: (§4) MAO-A (Sigma M7316) and MAO-B (Sigma M7441) inhibition assays were conducted in 96-well micro-plates according to the method described by Zhou et al. [Analytical Biochemistry 253, 169-174, 1997]. Both assays were performed in potassium phosphate buffer (0.1 M, pH 7.5) containing 0.5 mM tyramine (Sigma T2879), 0.12 mM N-acetyl-3,7-dihydrophenoxazine (Amplex Red, Invitrogen A12222), 1.2 unit/ml horseradish peroxidase (Sigma P2088), 0.6 unit/ml MAO-A or 2.5 unit/ml MAO-B, and various concentrations of test compounds (0.1 nM to 10 uM). Reactions were initiated by the addition of a pre-mixed solution of tyramine, horseradish peroxidase and Amplex Red, and were allowed to proceed at 37° C. for 30 min. Enzyme activities were determined by measuring absorbance at 570 nm (SpectralMax Plate reader), absorbance of oxidized Amplex Red generated by this horseradish peroxidase-coupled reaction. Nonspecifically formed products were determined in the presence of 2 and 10 µM clorgyline and deprenyl for MAO-A and MAO-B, respectively. IC50 values were determined by fitting concentration-inhibition data to sigmoidal dose-response curves with two-floating parameters: IC50 and Hill coefficient.

hMAO-B = target: T3, hMAO-B (Homo sapiens, UniProt P27338); experiment: MAO-B inhibition assay (Amplex Red, horseradish peroxidase-coupled); format: biochemical
T3 construct: purchased Sigma M7441
T3 sequence (P27338 1-520): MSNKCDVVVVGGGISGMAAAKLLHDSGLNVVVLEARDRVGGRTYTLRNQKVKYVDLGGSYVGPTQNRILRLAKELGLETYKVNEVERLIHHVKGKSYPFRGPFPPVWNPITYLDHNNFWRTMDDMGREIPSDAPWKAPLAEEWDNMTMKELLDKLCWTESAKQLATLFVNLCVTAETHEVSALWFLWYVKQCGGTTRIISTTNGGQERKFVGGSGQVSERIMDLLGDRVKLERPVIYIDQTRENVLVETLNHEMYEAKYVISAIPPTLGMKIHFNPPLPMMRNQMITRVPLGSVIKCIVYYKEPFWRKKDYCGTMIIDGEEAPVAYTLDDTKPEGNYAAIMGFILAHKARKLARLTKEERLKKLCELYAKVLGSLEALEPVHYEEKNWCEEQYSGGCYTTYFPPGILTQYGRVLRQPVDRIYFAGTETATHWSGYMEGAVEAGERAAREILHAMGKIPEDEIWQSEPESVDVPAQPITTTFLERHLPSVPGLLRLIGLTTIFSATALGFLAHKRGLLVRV
Experimental: as §4

Syrian golden hamsters = conditions: compared with daidzin; cited from earlier work
[9] = 30 min before test, listed as Comp. A

## CS(=O)(=O)Nc1ccc(-c2coc3cc(OCc4cccc(C(=O)O)c4)ccc3c2=O)cc1 [Compound A, 3-[(3-{4-[(methylsulfonyl)amino]phenyl}-4-oxochromen-7-yloxy)methyl]benzoic acid]
[1]
  locomotor line crossing: did not affect locomotor line crossing
[1]; vs vehicle
  increase in social interaction: 2 fold
[2]; 3.75-15 mg/kg during 1st and 2nd withdrawals, none after 3rd cycle, tested 5 days after last dose
  social interaction behavior, prophylactic treatment: increased social interaction behavior prophylactically
[2]; acute treatment after alcohol withdrawal, SD rats
  locomotor activity: No significant differences
[2]; acute, 3.75 and 15 mg/kg injected 30 min before testing, SD rats
  time of social interaction after alcohol withdrawal: increased the time of social interaction
[2]; acute, higher doses, SD rats
  social interaction behavior after alcohol withdrawal: completely normalizing the behavior
[2]; compared to vehicle treated rats withdrawn from the alcohol liquid diet
  locomotor activity (line crosses), prophylactic treatment: barely significant effect
[3]
  locomotor activity after restraint stress: no significant
[3]; restraint 60 min, 30-min recovery
  social interaction after restraint stress: prevented stress-induced anxiety-like behavior
[4]
  anxiogenic effects of DMCM (reduced social interaction): prevented by Compound A in a dose-dependent manner
  reduced locomotor activity caused by DMCM: not affected by Compound A, except at 7.5 mg/kg
[5]
  mCPP-induced anxiogenesis (social interaction): did not prevent mCPP-induced anxiogenesis
Rats [6]; 30 min before test, n=6
  Center Entries, Mean: 19.3
  Line Crosses, Mean: 109
Rats [6]; [9]
  Center Entries, individual rat: 28 and 25 and 18 and 13 and 26 and 6
  Line Crosses, individual rat: 135 and 125 and 84 and 113 and 104 and 90
Rats [6]; 30 min before the social interaction, n=6
  Social Interaction, Mean: 13.3
Rats [6]; 30 min before the social interaction, listed as Comp. A
  Social Interaction, individual rat: 13 and 16 and 14 (2×) and 11 and 12
Rats [6]; vs vehicle
  activity, in words: not activity
  social interaction (anxiolytic effect), in words: increased social interaction
Rats [7]
  food intake, in words: did not affect
  water intake, in words: did not affect
Rats [7]; 2 hr, n=6
  2 hr Alcohol Intake, Mean: 0.2
Rats [7]; 2 hr, listed as Comp. A
  2 hr Alcohol Intake, individual rat: 0 (2×) and 0.38 (3×) and 0.19
Rats [7]; 4 hr, n=6
  4 hr Alcohol Intake, Mean: 0.7
Rats [7]; 4 hr, listed as Comp. A
  4 hr Alcohol Intake, individual rat: 0.88 and 0.4 and 0.76 and 0.95 and 0.38 and 0.57
Rats [7]; 6 hr, n=6
  6 hr Alcohol Intake, Mean: 1.3
Rats [7]; 6 hr, listed as Comp. A
  6 hr Alcohol Intake, individual rat: 1.72 and 1.2 and 1.23 and 1.71 and 0.95 and 1
Rats [7]; 24 hr, n=6
  24 hr Alcohol Intake, Mean: 4.1
Rats [7]; 24 hr, listed as Comp. A
  24 hr Alcohol Intake, individual rat: 3.2 and 4 and 4.94 and 5.32 and 3.23 and 3.6
Rats [7]; from 2-6 hr
  alcohol intake, in words: reduced alcohol intake
Rats [7]; n=6
  Food Intake, Mean: 19.7
Rats [7]; listed as Comp. A
  Food Intake, individual rat: 19 (2×) and 18 and 21 (2×) and 20

## CCOC(=O)c1ccc(COc2ccc3c(=O)c(-c4ccc(O)cc4)coc3c2)cc1 [PT-34, ethyl 4-{[3-(4-hydroxyphenyl)-4-oxochromen-7-yloxy]methyl}benzoate]
[8]
  IC50: 0.13 µM
hMAO-A
  IC50: 24 µM
hMAO-B
  IC50: 2.3 µM

## N#CCOc1ccc2c(=O)c(-c3ccc(O)cc3)coc2c1 [PT-88, 2-[3-(4-hydroxyphenyl)-4-oxochromen-7-yloxy]ethanenitrile]
[8]
  IC50: 0.023 µM
hMAO-A
  IC50: 6.2 µM
hMAO-B; at 10 μM, read-out: hMAO-B inhibition (IC50 hMAO-B)
  inhibition at 10 µM: 35%

## O=c1c(-c2ccc(O)cc2)coc2cc(O)ccc12 [daidzein]
Syrian golden hamsters
  suppressing ethanol uptake: effective in suppressing ethanol uptake, but with decreased potency
